Results reported in the supplement of paper PMC11997997.

Tests used:
[1] = system: murine bone marrow-derived macrophages; assay: area under cytotoxicity dose-response curve (AUC (% cytotoxicity x dose, relative)); higher = more cytotoxic; settings: duration: 6 days; dose range: 0.13-80 uM, 8 points
Summary of the method: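 An 8-point, 2.5-fold dilution series (final 80–0.13 μM) was applied for 6 days at 37 °C in 5% CO2 to primary murine bone marrow-derived macrophages plated in opaque 384-well plates. Promega's CellTiter-Glo luminescence assay measured viability, and percent cytotoxicity was normalised against vehicle and positive control wells. The area under the dose–response curve, worked out in GraphPad Prism version 10, is the reported cytotoxicity measure.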

[2] = system: Mycobacterium tuberculosis CDC1551 (intracellular, in murine BMDM); assay: area under intracellular growth-inhibition dose-response curve (AUC (% inhibition x dose, relative)); higher = more potent; settings: duration: 6 days; dose range: 0.13-80 uM, 8 points
Summary of the method: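 Each value is an area under the growth-inhibition dose–response curve, calculated with GraphPad Prism. Infected primary murine bone marrow-derived macrophages, carrying luciferase-expressing M. tuberculosis CDC1551 at multiplicity of infection 1, were treated for 6 days with an 8-dose, 2.5-fold series (final 80–0.13 μM) in 384-well opaque plates. Readout was by Bright-Glo luciferin assay, normalised to a reference drug control and the lowest-concentration wells.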

SMILES | area under cytotoxicity dose-response curve [1] | area under intracellular growth-inhibition dose-response curve [2]
Cc1ccc(Cc2c(C)c(C#N)c3nc4ccccc4n3c2O)cc1 | 75.7 | 240
O=C(COc1ccccc1)NCc1cccs1 | 14.2 | 130
NC(=S)N/N=C/c1ccc(OC(=O)c2cccnc2)cc1 | 48 | 262
COC(=O)c1sccc1NC(=O)c1c(F)c(F)c(F)c(F)c1F | 12.8 | 158
CC(C(=O)NC1C(=O)N2C(C(=O)O)=C(CSc3nnnn3C)CSC12)n1cc(Cl)cn1 (stereo not drawn) | 23.7 | 174
Clc1ccc2nnc(Cl)n2n1 | 54 | 79.4
Cc1ccc(-c2nnc(NC(=O)c3ccc([N+](=O)[O-])o3)o2)c(C)c1 | 91.5 | 78.2
N=C(NCCCCCCNC(=N)NC(=N)Nc1ccc(Cl)cc1)NC(=N)Nc1ccc(Cl)cc1 | 165 | 89.5
Cc1sc(N/N=C/C=C/c2ccccc2)nc1-c1ccccc1 | 16.1 | 268
CN1CCN(c2c(F)cc3c(=O)c(C(=O)[O-])cn4c3c2OCN4C)CC1 | 18.2 | 187
O=C(NCCC1CCCC1)c1cccs1 | 13.7 | 200
CC[C@H]1OC(=O)[C@H](C)[C@@H](O[C@H]2C[C@@](C)(OC)[C@@H](O)[C@H](C)O2)[C@H](C)[C@@H](O[C@@H]2O[C@H](C)C[C@H](N(C)C)[C@H]2O)[C@](C)(O)C[C@@H](C)C(=NOCOCCOC)[C@H](C)[C@@H](O)[C@]1(C)O | 7.74 | 204
CCc1ccc([C@@H]2CC=C(C(=O)O)[C@H](c3ccc(C(C)(C)C)cc3)N2S(=O)(=O)c2ccc(C)cc2)cc1 | 78.6 | 84.8
CC[N+](CC)(CC)CCCCOc1ccc2c(c1)C(=O)c1cc(OCCCC[N+](CC)(CC)CC)ccc1-2.[I-] | 56.8 | 92.4
Cc1cc(OCCCC(=O)NNC(=O)c2ccncc2)ccc1Cl | 25.3 | 245
CCOc1ccc2oc(C(=O)OCC(=O)N3C(C)CCCC3C)c(C)c2c1 (stereo not drawn) | 105 | 5.04
Cc1cccc(NC(=O)NC2CCCCCCC2)c1 | 95.3 | 123
Cn1nc(C(=O)OCC(=O)NCc2ccc(Cl)cc2)c2ccccc2c1=O | 4.5 | 83
C=CCNC(=S)NNC(=O)CC12CC3CC(CC(C3)C1)C2 | 8.72 | 222
NNC(=O)c1ccncc1 | < 0 | 272

SMILES | area under cytotoxicity dose-response curve [1] | area under intracellular growth-inhibition dose-response curve [2]
O=C(N/N=C/c1ccc(O)cc1)c1ccncc1 | 1.59 | 168
COc1cc(OC)c2c(OC)cccc2n1 | 101 | 92.3
Cc1ccc(C2(C)NC(=O)N(CC(=O)N3c4ccccc4NC(=O)CC3C)C2=O)cc1 (stereo not drawn) | 3.65 | 36.2
COc1cccc(OCCNC(=O)c2cc([N+](=O)[O-])cc([N+](=O)[O-])c2)c1 | 10.6 | 265
Cc1cccc(-c2nsc(SCC(=O)N3CCCC3)n2)c1 | 98 | 224
CC1CCC(NC(=O)c2ccc3c(c2)OCO3)CC1 (stereo not drawn) | < 0 | 218
COc1ccc(NC(=O)Cn2c(C)cc(=O)c3ccccc32)cc1 | < 0 | 182
O=C(COC(=O)Cc1ccc(Cl)cc1)NCc1cccs1 | 18.4 | 37.1
COc1ccccc1N1C(C)=CC(=Cc2sc3ccccc3[n+]2C)C=C1C.[I-] | 25.9 | 119
CNC[C@H](CC1CCCCC1)NC[C@H](Cc1ccccc1)NCCC12CC3CC(CC(C3)C1)C2 | 43 | 104
O=C(COC(=O)C1COc2ccccc2O1)Nc1cccc(F)c1 (stereo not drawn) | < 0 | 46.1
O=C(c1cccc(C(F)(F)F)c1)N1CCCC1 | < 0 | 232
COc1ccc(/C(C)=N/NC(=O)c2ccncc2)cc1 | 151 | 229
COc1cc2c(cc1OC)CN(C(=O)c1ccc([N+](=O)[O-])o1)CC2 | 37 | 101
CCOc1ccc(/C=N/NC(N)=S)cc1 | 28.9 | 270
Cc1c([N+](=O)[O-])cc(C(=O)NCc2ccc(F)cc2)cc1[N+](=O)[O-] | < 0 | 252
O=Cc1ccc2oc3nc4n(c(=O)c3c(=O)c2c1)CCCS4 | 95.3 | 111
O=C(NC1C2CC3CC(C2)CC1C3)c1ccc2c(c1)OCO2 (stereo not drawn) | 123 | 226
O=C(COC(=O)C1CC2CCCC(C1)C2=O)Nc1ccc(F)c(Cl)c1 (stereo not drawn) | 44.5 | 90.3
[O-][n+]1onc2c3cc(-c4ccccc4)[nH]c3ccc21 | 40.6 | 74.3

SMILES | area under cytotoxicity dose-response curve [1] | area under intracellular growth-inhibition dose-response curve [2]
C/C=C/C=N\NC(=O)c1ccncc1 | 9.36 | 259
Cc1ccc(C2=NN(C(=O)CCl)C(c3ccco3)C2)o1 (stereo not drawn) | 73.1 | 88.6
CCOc1ccc(C(=O)NC(=S)Nc2ccc(N3CCC(C)CC3)cc2)cc1[N+](=O)[O-] | 81.7 | 254
Cc1ccc(/C(O)=C/c2nc3ccccc3oc2=O)cc1 | < 0 | 22.9
N#Cc1ccc(NCC(=O)N2CCN(S(=O)(=O)c3ccccc3)CC2)cc1 | < 0 | 56.7
CCCOc1ccccc1OCC(=O)N1CCN(S(=O)(=O)c2ccc(Cl)cc2)CC1 | 126 | 48.8
CC(NC(=O)Nc1ccc(Br)cc1)C(C)(C)C (stereo not drawn) | 55.3 | 228
CCn1c(C)cs/c1=N/C(=O)c1ccccc1 | 25.7 | 197
Cc1nnc(SCC2=C(C(=O)O)N3C(=O)C(NC(=O)Cn4cnnn4)C3SC2)s1 (stereo not drawn) | 100 | 138
COc1cc(OC)c(/C=N/NC(=O)c2ccncc2)cc1Br | 98 | 249
C=C1C(=O)O[C@@H]2C[C@@H](C)[C@@H]3C=CC(=O)[C@@]3(C)[C@@H](OC(=O)CC(=O)O[C@H]3[C@@H]4C(=C)C(=O)O[C@@H]4C[C@@H](C)[C@@H]4C=CC(=O)[C@]43C)[C@H]12 | 35 | 87.6
CC1CCN(C(=O)C2CCN(c3nnc(-n4cccc4)s3)CC2)CC1 | < 0 | 234
COc1ccc(CCNC(=S)Nc2ccccc2)cc1 | 78.8 | 134
COC(=O)c1ccc(COc2ccc(/C=N/NC(N)=S)cc2)o1 | 50.5 | 277
CC(=O)N1CCN(S(=O)(=O)c2cccc(C(=O)Nc3ccccc3N3CCCCC3)c2)CC1 | 21.9 | < 0
Cc1cc(OCC(=O)N2CCCC2)cc(C)c1Cl | < 0 | 254
CN(C)[C@@H]1C(=O)C(C(N)=O)=C(O)[C@@]2(O)C(=O)C3=C(O)c4c(O)ccc(Cl)c4[C@@H](O)[C@H]3C[C@@H]12.Cl | < 0 | 253
Cc1ccc2ccc3ccc(C)nc3c2n1 | 160 | 29.4
COc1ccc(NS(=O)(=O)c2ccc(N3CCOCC3)c(N)c2)cc1 | < 0 | 34.5
